From US12521393B2, “Cytotoxicity targeting chimeras for CCR2-expressing cells” (GLAXOSMITHKLINE INTELLECTUAL PROPERTY DEVELOPMENT LIMITED, priority 2021, dated 2026)

Columns and labels:
[1] = system: CCR2 expressing cells (CD11b+Ly6c+Hi) in peripheral blood; experiment: In vivo depletion assay, flow cytometry of peripheral blood (Example 201); set-up: species or system human CCR2 knock-in mice (C57 background); settings: hCCR2 knock-in mice, IV 0.1 mpk compound + 10 mpk anti-cotinine antibody (SEQ ID NO: 13/14), peripheral blood at 48 hr
In short: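 Flow cytometry of blood collected at study termination quantified percent depletion of CD11b+Ly6c+Hi cells and CCR2 expression, using surface markers CD45, CD3, CD11b, Ly6C, human CCR2 after Fc block, with 7AAD viability stain. Compound given in saline:DMSO:PBS formulation, optionally combined with anti-cotinine antibody, incubated 30 min before administration.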

[2] = molecular target: human alpha1 nicotinic acetylcholine (nACh) receptor (Homo sapiens, UniProt P02708); experiment: Nicotinic acetylcholine receptor antagonism assay, IONFlux automated patch clamp (Example 203); type: cell-based; settings: for IC50: antagonism of ACh-stimulated human alpha1 nAChR current, patch clamp; for Emax at 100 µM: maximum percentage antagonism at maximum concentration tested 100 μM; for Emax at 10 µM: maximum percentage antagonism at maximum concentration tested 10 μM
In short: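 Cells expressing human α1 nAChR were incubated with a compound dose response (top 10 μM or 100 μM), then stimulated with ACh (10 mM), and peak current was read by automated patch clamp. % inhibition was taken against ACh-alone control, corrected for vehicle and run-down, and fit non-linearly for IC50; runs were averaged.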

Sequence of human alpha1 nicotinic acetylcholine (nACh) receptor (P02708 21-457): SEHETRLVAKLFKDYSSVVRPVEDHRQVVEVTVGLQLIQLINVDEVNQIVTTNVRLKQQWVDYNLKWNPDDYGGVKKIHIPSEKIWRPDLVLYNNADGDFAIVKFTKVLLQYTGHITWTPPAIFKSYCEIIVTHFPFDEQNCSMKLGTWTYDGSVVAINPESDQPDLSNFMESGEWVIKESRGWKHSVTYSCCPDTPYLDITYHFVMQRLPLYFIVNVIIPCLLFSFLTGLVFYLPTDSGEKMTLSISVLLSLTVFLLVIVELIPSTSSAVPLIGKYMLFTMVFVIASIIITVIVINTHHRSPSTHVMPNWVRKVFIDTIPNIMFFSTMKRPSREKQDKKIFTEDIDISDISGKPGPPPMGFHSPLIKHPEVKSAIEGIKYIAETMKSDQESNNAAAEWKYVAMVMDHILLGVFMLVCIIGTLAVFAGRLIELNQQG
Sequence of human alpha1 nicotinic acetylcholine (nACh) receptor (P11230 24-501 partner): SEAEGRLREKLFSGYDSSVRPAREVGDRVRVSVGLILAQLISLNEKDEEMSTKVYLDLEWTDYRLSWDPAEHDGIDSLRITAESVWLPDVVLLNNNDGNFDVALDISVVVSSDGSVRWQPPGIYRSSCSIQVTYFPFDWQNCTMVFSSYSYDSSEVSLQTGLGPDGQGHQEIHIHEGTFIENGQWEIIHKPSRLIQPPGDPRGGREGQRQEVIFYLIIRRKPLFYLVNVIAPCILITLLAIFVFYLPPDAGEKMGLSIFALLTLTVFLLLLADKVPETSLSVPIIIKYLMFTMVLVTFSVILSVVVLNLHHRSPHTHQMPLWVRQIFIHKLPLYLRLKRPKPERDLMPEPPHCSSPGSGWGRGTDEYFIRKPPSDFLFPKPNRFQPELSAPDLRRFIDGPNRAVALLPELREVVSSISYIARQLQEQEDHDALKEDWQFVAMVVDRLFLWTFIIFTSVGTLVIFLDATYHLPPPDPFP
Sequence of human alpha1 nicotinic acetylcholine (nACh) receptor (Q07001 22-517 partner): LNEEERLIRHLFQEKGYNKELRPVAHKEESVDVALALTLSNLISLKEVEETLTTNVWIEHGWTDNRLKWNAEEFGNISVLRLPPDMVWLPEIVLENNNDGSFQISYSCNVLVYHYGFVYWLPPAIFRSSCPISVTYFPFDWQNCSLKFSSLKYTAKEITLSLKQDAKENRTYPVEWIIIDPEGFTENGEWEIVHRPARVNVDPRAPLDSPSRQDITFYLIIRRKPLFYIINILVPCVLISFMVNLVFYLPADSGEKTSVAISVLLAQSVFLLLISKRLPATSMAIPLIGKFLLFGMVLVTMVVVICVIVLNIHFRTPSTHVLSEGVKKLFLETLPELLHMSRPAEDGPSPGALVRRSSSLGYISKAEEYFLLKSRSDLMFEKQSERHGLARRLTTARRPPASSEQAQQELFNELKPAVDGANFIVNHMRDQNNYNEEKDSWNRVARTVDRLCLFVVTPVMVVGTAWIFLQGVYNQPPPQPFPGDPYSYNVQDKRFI

## CC(C)N(C)[C@@H]1CC[C@H](N2CC[C@H](Nc3ncnc4ccc(C(F)(F)F)cc34)C2=O)[C@H](NC(=O)[C@H]2CC[C@@H](NC(=O)CCOCCOCCOCCNC(=O)[C@H]3CC(=O)N(C)[C@@H]3c3cccnc3)CC2)C1 [Example 28, (2S,3S)-N-(2-(2-(2-(3-(((1S,4s)-4-(((1R,2S,5R)-5-(Isopropyl(methyl)amino)-2-((S)-2-oxo-3-((6-(trifluoromethyl)quinazolin-4-yl)amino)pyrrolidin-1-yl)cyclohexyl)carbamoyl)cyclohexyl)amino)-3-oxopropoxy)ethoxy)ethoxy)ethyl)-1-methyl-5-oxo-2-(pyridin-3-yl)pyrrolidine-3-carboxamide]
[1]
  % Depletion of CCR2 expressing cells: 87.1%
[2]
  IC50: 40.9 µM
[2]; read-out: Maximum Response
  Emax at 100 µM: 69.9%

## CC(C)N(C)[C@@H]1CC[C@H](N2CC[C@H](Nc3ncnc4ccc(C(F)(F)F)cc34)C2=O)[C@H](NC(=O)[C@H]2CC[C@H](NC(=O)CCOCCOCCOCCNC(=O)[C@H]3CC(=O)N(C)[C@@H]3c3cccnc3)CC2)C1 [Example 30, (2S,3S)-N-(2-(2-(2-(3-(((1R,4r)-4-(((1R,2S,5R)-5-(Isopropyl(methyl)amino)-2-((S)-2-oxo-3-((6-(trifluoromethyl)quinazolin-4-yl)amino)pyrrolidin-1-yl)cyclohexyl)carbamoyl)cyclohexyl)amino)-3-oxopropoxy)ethoxy)ethoxy)ethyl)-1-methyl-5-oxo-2-(pyridin-3-yl)pyrrolidine-3-carboxamide]
[1]
  % Depletion of CCR2 expressing cells: 34.88%
[2]
  IC50: ≥ 10 µM
[2]; read-out: Maximum Response
  Emax at 10 µM: 5.4%

## CCN1C(=O)C[C@H](C(=O)NCCOCCOCCOCCC(=O)N[C@H]2CC[C@@H](C(=O)N[C@@H]3C[C@H](N(C)C(C)C)CC[C@@H]3N3CC[C@H](Nc4ncnc5ccc(C(F)(F)F)cc45)C3=O)CC2)[C@H]1c1cccnc1 [Example 34, (2S,3S)-1-ethyl-N-(2-(2-(2-(3-((cis-4-(((1R,2S,5R)-5-(isopropyl(methyl)amino)-2-((S)-2-oxo-3-((6-(trifluoromethyl)quinazolin-4-yl)amino)pyrrolidin-1-yl)cyclohexyl)carbamoyl)cyclohexyl)amino)-3-oxopropoxy)ethoxy)ethoxy)ethyl)-5-oxo-2-(pyridin-3-yl)pyrrolidine-3-carboxamide]
[1]
  % Depletion of CCR2 expressing cells: 95%
[2]
  IC50: 28.5 µM
[2]; read-out: Maximum Response
  Emax at 100 µM: 79.2%

## CCN1C(=O)C[C@H](C(=O)NCCOCCOCCOCCC(=O)N[C@H]2CC[C@@H](C(=O)N[C@@H]3C[C@H](NC(C)(C)C)CC[C@@H]3N3CC[C@H](Nc4ncnc5ccc(C(F)(F)F)cc45)C3=O)CC2)[C@H]1c1cccnc1 [Example 35, (2S,3S)-N-(2-(2-(2-(3-(((1S,4s)-4-(((1R,2S,5R)-5-(tert-butylamino)-2-((S)-2-oxo-3-((6-(trifluoromethyl)quinazolin-4-yl)amino)pyrrolidin-1-yl)cyclohexyl)carbamoyl)cyclohexyl)amino)-3-oxopropoxy)ethoxy)ethoxy)ethyl)-1-ethyl-5-oxo-2-(pyridin-3-yl)pyrrolidine-3-carboxamide]
[1]
  % Depletion of CCR2 expressing cells: 88.81%
[2]
  IC50: 89.2 µM
[2]; read-out: Maximum Response
  Emax at 100 µM: 52.3%

## CN1C(=O)C[C@H](C(=O)NCCOCCOCCOCCOCCOCCC(=O)N[C@@H]2C[C@H](NC(C)(C)C)CC[C@@H]2N2CC[C@H](Nc3ncnc4ccc(C(F)(F)F)cc34)C2=O)[C@H]1c1cccnc1 [Example 37, (2S,3S)-N-(18-(((1R,2S,5R)-5-(tert-Butylamino)-2-((S)-2-oxo-3-((6-(trifluoromethyl)quinazolin-4-yl)amino)pyrrolidin-1-yl)cyclohexyl)amino)-18-oxo-3,6,9,12,15-pentaoxaoctadecyl)-1-methyl-5-oxo-2-(pyridin-3-yl)pyrrolidine-3-carboxamide]
[1]
  % Depletion of CCR2 expressing cells: 75%
[2]
  IC50: ≥ 10 µM
[2]; read-out: Maximum Response
  Emax at 10 µM: 7.3%

## CN1C(=O)C[C@H](C(=O)NCCOCCOCCOCCOCCOCCOCCC(=O)N[C@@H]2C[C@H](NC(C)(C)C)CC[C@@H]2N2CC[C@H](Nc3ncnc4ccc(C(F)(F)F)cc34)C2=O)[C@H]1c1cccnc1 [Example 38, (2S,3S)-N-(21-(((1R,2S,5R)-5-(tert-Butylamino)-2-((S)-2-oxo-3-((6-(trifluoromethyl)quinazolin-4-yl)amino)pyrrolidin-1-yl)cyclohexyl)amino)-21-oxo-3,6,9,12,15,18-hexaoxahenicosyl)-1-methyl-5-oxo-2-(pyridin-3-yl)pyrrolidine-3-carboxamide]
[1]
  % Depletion of CCR2 expressing cells: 84.55%
[2]
  IC50: ≥ 10 µM
[2]; read-out: Maximum Response
  Emax at 10 µM: -2.2%

## CC(C)N(C)[C@@H]1CC[C@H](N2CC[C@H](Nc3ncnc4ccc(C(F)(F)F)cc34)C2=O)[C@H](NC(=O)C2CCC(NC(=O)CCOCCNC(=O)CCOCCNC(=O)[C@H]3CC(=O)N(C)[C@@H]3c3cccnc3)CC2)C1 (stereo partly drawn) [Example 48, (2S,3S)-N-(2-(3-((2-(3-(((1R,4r)-4-(((1R,2S,5R)-5-(Isopropyl(methyl)amino)-2-((S)-2-oxo-3-((6-(trifluoromethyl)quinazolin-4-yl)amino)pyrrolidin-1-yl)cyclohexyl)carbamoyl)cyclohexyl)amino)-3-oxopropoxy)ethyl)amino)-3-oxopropoxy)ethyl)-1-methyl-5-oxo-2-(pyridin-3-yl)pyrrolidine-3-carboxamide]
[1]
  % Depletion of CCR2 expressing cells: 89%
[2]
  IC50: 31.8 µM
[2]; read-out: Maximum Response
  Emax at 100 µM: 77%

## CC(C)N(C)[C@@H]1CC[C@H](N2CC[C@H](Nc3ncnc4ccc(C(F)(F)F)cc34)C2=O)[C@H](NC(=O)[C@H]2C[C@@H](NC(=O)CCOCCOCCNC(=O)CCNC(=O)[C@H]3CC(=O)N(C)[C@@H]3c3cccnc3)C2)C1 [Example 49, (2S,3S)-N-(3-((2-(2-(3-(((1S,3s)-3-(((1R,2S,5R)-5-(Isopropyl(methyl)amino)-2-((S)-2-oxo-3-((6-(trifluoromethyl)quinazolin-4-yl)amino)pyrrolidin-1-yl)cyclohexyl)carbamoyl)cyclobutyl)amino)-3-oxopropoxy)ethoxy)ethyl)amino)-3-oxopropyl)-1-methyl-5-oxo-2-(pyridin-3-yl)pyrrolidine-3-carboxamide]
[1]
  % Depletion of CCR2 expressing cells: 85.84%
[2]
  IC50: 80.3 µM
[2]; read-out: Maximum Response
  Emax at 100 µM: 56.7%

## CC(C)N(C)[C@@H]1CC[C@H](N2CC[C@H](Nc3ncnc4ccc(C(F)(F)F)cc34)C2=O)[C@H](NC(=O)[C@H]2CC[C@@H](NC(=O)CCCO[C@H]3CC[C@H](NC(=O)CCNC(=O)[C@@H]4CC(=O)N(C)[C@H]4c4cccnc4)CC3)CC2)C1 [Example 52, (2S,3S)-N-(3-(((1R,4S)-4-(4-(((1S,4S)-4-(((1R,2S,5R)-5-(Isopropyl(methyl)amino)-2-((S)-2-oxo-3-((6-(trifluoromethyl)quinazolin-4-yl)amino)pyrrolidin-1-yl)cyclohexyl)carbamoyl)cyclohexyl)amino)-4-oxobutoxy)cyclohexyl)amino)-3-oxopropyl)-1-methyl-5-oxo-2-(pyridin-3-yl)pyrrolidine-3-carboxamide]
[1]
  % Depletion of CCR2 expressing cells: 79.18%
[2]
  IC50: 33.3 µM
[2]; maximum percentage antagonism at maximum concentration tested 33.33 μM, read-out: Maximum Response
  Emax at 33.33 µM: 8.3%
